# From patent US20080300298A1, “Honokiol Derivates For the Treatment of Proliferative Disorders” (priority 2005, published 2008)
# Experiments:
# [1] = test system: tumor cells isolated from patients with relapsed refractory MM; assay: cytotoxicity against patient MM cells (CD38high, flow cytometry); assay type: cell-based, human; settings: 8 ug/ml, 48 h, N=6, mean ±SD
# Experimental: Assessment of HNK-induced cytotoxicity against patient MM cells: Cytotoxicity of HNK against fresh MM cells was determined as previously determined, see, for example, Mitsiades et al Cancer Cell. 2004; 5:221-230. Fresh MNCs separated from bone marrow samples derived from patients with MM were incubated with PE-conjugated anti-CD138 antibody and/or FITC-conjugated anti-CD38 antibody (BD Biosciences, San Diego, Calif.) for 30 minutes on ice and washed, followed by analysis using EPICS XL flow cytometer (Beckman Coulter, Hialeah, Fla.). A CD38^high fraction enriched for MM cells was determined in side and forward scatter panel in each case. The expression of CD138 on gated cells was also evaluated. After HNK-treatment for 48 h, cells were harvested and percentage of CD38^high cells with or without HNK-treatment was evaluated. […] Cells were stained with propidium iodide (PI; 50 μg/mL; Sigma, St Louis, Mo.), and cell cycle profile was determined by using the program M software on an EPICS XL flow cytometer (Beckman Coulter, Hialeah, Fla.). […] Fluorescence intensity of TUNEL and APO 2.7 staining was determined using on EPICS XL flow cytometer. Cytotoxicity was determined by trypan blue exclusion assay. […] Cell growth and induction of apoptosis were determined both by colorimetric assay and now cytometric detection of APO2.7 after 48 h treatment. […] DNA synthesis was measured by [^3H]-thymidine uptake. […]
# [2] = test system: BMSCs; assay type: cell-based, human
# Experimental: MNCs in BM specimens were also used to establish long-term bone marrow stromal cell (BMSC) cultures, as described in, for example, Uchiyama et al Blood. 1993; 82:3712-3720 and Hideshmia et al Oncogene. 2001; 20:4519-4527.
# Reagents: Honokiol (HNK; Calbiochem, San Diego, Calif.) was dissolved in ethanol at 20 mg/ml stock solution. Recombinant human interleukin-6 (IL-6), vascular endothelial growth factor (VEGF) and insulin-like growth factor-1 (IGF-1) (R&D Systems, Minneapolis, Minn.) were reconstituted with sterile PBS containing 0.1% FBS (IL-6 and VEGF) and 10 mM of acetic acid containing 0.1% FBS (IGF-1), respectively. Pan-caspase inhibitor z-VAD-fmk (Bachem, Bubendorf, Switzerland) was dissolved in methanol. These reagents were stored at −20° C. and diluted by media just before the use. Doxorubicin (Sigma, St Louis, Mo.) was dissolved in sterile water at the concentration of 3.45 mM. As2O3 (5 mM in PBS) was provided by Cell Therapeutics Inc. (Seattle, Wash.). […] Absorbance readings at a wavelength of 450 nm were taken on a spectrophotometer (Molecular Devices Corp., Sunnyvale, Calif.).
# The effect of HNK on MM cells in the presence of exogenous IL-6 and IGF-1, as well as BMSCs was evaluated. […] DNA synthesis was determined by measuring [^3H]-thymidine incorporation during the last 8 h of 48 h cultures. […]
structure (smiles),measurement,setting,value
"C=CCc1ccc(O)c(-c2ccc(O)c(CC=C)c2)c1 [HNK, Honokiol]",percentage of CD38high cells compared to control cultures,[1],26.2±15.8%
same,viability of BMSCs,[2],did not affect the viability of BMSCs
